According to patent US9822139B2, “Pharmaceutical composition containing cyclometalated N-heterocyclic carbene complexes for cancer treatment” (THE UNIVERSITY OF HONG KONG, priority 2009, dated 2017):

Assays:
topoisomerase I (TopoI) = target: T1, topoisomerase I (TopoI) (Homo sapiens, UniProt P11387); assay: TopoI-mediated relaxation of supercoiled DNA; format: biochemical
T1 sequence (P11387 1-765): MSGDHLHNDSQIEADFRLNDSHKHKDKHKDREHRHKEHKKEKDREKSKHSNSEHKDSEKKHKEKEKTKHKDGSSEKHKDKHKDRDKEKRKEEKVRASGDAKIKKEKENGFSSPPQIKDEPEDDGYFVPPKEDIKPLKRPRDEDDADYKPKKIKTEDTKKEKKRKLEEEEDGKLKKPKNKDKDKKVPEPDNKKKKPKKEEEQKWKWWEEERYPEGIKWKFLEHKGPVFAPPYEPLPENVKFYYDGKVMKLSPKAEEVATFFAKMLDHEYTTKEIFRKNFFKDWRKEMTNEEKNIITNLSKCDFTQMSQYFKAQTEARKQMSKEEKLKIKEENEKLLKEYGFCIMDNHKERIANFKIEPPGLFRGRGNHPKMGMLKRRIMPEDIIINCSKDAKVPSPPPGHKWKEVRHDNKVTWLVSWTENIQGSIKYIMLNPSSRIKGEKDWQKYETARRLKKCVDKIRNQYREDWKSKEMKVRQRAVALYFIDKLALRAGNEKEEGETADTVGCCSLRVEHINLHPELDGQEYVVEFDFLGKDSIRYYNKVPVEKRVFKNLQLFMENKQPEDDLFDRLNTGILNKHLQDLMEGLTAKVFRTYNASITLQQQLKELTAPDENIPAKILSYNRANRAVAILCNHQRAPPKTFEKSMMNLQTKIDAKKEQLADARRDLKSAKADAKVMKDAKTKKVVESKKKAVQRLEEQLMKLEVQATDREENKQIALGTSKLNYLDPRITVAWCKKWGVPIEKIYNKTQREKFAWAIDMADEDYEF
Source text: DNA strand breaks were also detected in complex 1-treated KB cells by alkaline comet assay. […] Topoisomerases have become one of the important cellular targets for anti-cancer treatment. It is believed that topoisomerase inhibitors prevent the ligation step of the cell cycle, generate DNA strand breaks, and subsequently induce apoptosis in cells. […] The assay was repeated on ethidium bromide containing gel (FIG. 4, lower).

TopoI = target: T2, TopoI (Homo sapiens, UniProt P11387); assay: Band depletion assay for TopoI cleavable complexes; format: cell-based; conditions: KB cells
T2 construct: endogenous in cells; host or cells: KB cells
T2 sequence (P11387 1-765): T1 sequence (P11387 1-765)
Source text: In this assay, while TopoI-DNA cleavable complexes are trapped by alkaline lysis, free TopoI is detected as an immunoreactive band.

melanoma (B16) = assay: MTT cytotoxicity assay, B16; format: cell-based, mouse; conditions: 72 h
Procedure: (§1) Example 2 describes the in vitro cytotoxicity, which is indicative of the induction of cell death and/or inhibition of cellular proliferation of cancer cells, of the cyclometalated N-heterocyclic complexes on cervical epithelioid carcinoma, hepatocellular carcinoma, leukemia, nasopharyngeal carcinoma, breast carcinoma, melanoma, and lung carcinoma.
(§2) By means of MTT assays, the cytotoxic properties of cyclometalated N-heterocyclic carbene complexes (1-25) were determined toward some established human cancer cell lines including hepatocellular carcinoma (HepG2), cervical epithelioid carcinoma (HeLa), epithelial carcinoma (KB and its camptothecin-resistant cell line KB100), non-small cell lung carcinoma (NCI-H460), leukemia (HL-60), breast carcinoma (MDA-MB-231), melanoma (B16) and nasopharyngeal carcinoma (SUNE1). […] In terms of the IC50 values, they display similar cytotoxic properties compared to the reference complexes cisplatin and camptothecin (CPT).

[1] = system: breast carcinoma (MDA-MB-231); assay: MTT cytotoxicity assay, MDA-MB-231; format: cell-based, human; conditions: 72 h, MBA-MD-231
Procedure: as §1, §2

[2] = system: lung fibroblast cells (CCD-19Lu); assay: MTT cytotoxicity to non-cancerous cells, CCD-19Lu; format: cell-based, human; conditions: 72 h, non-cancerous lung fibroblast cells CCD-19Lu
Procedure: as §2
Using lung fibroblast cells (CCD-19Lu), the cytotoxicity of the complexes to non-cancerous cells was also examined.

[3] = system: non-small cell lung carcinoma (NCI-H460); assay: MTT cytotoxicity assay, NCI-H460; format: cell-based, human; conditions: 72 h
Procedure: as §1, §2

[4] = system: hepatocellular carcinoma (HepG2); assay: MTT cytotoxicity assay, HepG2; format: cell-based, human; conditions: 72 h
Procedure: as §1, §2

[5] = system: epithelial carcinoma (KB); assay: MTT cytotoxicity assay, KB; format: cell-based, human; conditions: 72 h
Procedure: as §1, §2

[6] = system: established human cancer cell lines; assay: MTT cytotoxicity, panel of cancer cell lines (summary statements); format: cell-based; conditions: in terms of IC50, versus cisplatin
Procedure: as §2

leukemia (HL-60) = assay: MTT cytotoxicity assay, HL-60; format: cell-based, human; conditions: 72 h
Procedure: as §1, §2

[7] = system: cervical epithelioid carcinoma (HeLa); assay: MTT cytotoxicity assay, HeLa; format: cell-based, human; conditions: 72 h
Procedure: as §1, §2

[8] = system: PLC tumor (hepatocellular carcinoma); assay: In vivo anti-cancer study, nude mice bearing PLC tumor; conditions: 3 mg/kg/week for 28 days
Source text: Prompted by the prominent in vitro cytotoxicity and the potential cancer-cell selectivity, the in vivo anti-cancer property of complex 1 was preliminarily examined by using nude mice models with the approval from the Committee on the Use of Live Animals for Teaching and Research (The University of Hong Kong).

SUNE1 cells = assay: Apoptosis induction by flow cytometry (AV-FITC / PI); format: cell-based; conditions: 72 h
Procedure: Since cancer is characterized by uncontrolled cellular proliferation, there is a considerable interest in chemotherapeutic-induced apoptosis [J. C. Reed, Nature Rev. Drug Discov. 2002, 1, 111; D. W. Nicholson, Nature 2000, 407, 810]. Using fluorescein-labeled annexin V (AV-FITC) and propidium iodide (PI), the apoptosis-inducing properties of complex 1 in SUNE1 cells were examined by flow cytometry. […] The apoptosis-inducing properties of complex 1 at a lower dose (12 μM for 72 h) were also examined. […] According to the propagation profiles (formazan absorbance A550nm vs incubation time) of the treated SUNE1 cells, there is a trend of cellular growth inhibition in the presence of complex 1 at 12 μM level. Taken together with the flow cytometric results, complex 1 appears to inhibit cancer cell proliferation at 12 μM and induce apoptosis at higher doses (i.e. 60 μM).
The apoptosis-inducing properties of complex 14 in SUNE1 cells were also examined by flow cytometry. […] The apoptosis-inducing properties of complex 14 at a lower dose (1 μM for 72 h) were also examined. […] Thus, complex 14 could induce apoptosis at 10 μM.

[9] = system: camptothecin-resistant cell line KB100; assay: MTT cytotoxicity assay, KB100; format: cell-based, human; conditions: 72 h
Procedure: as §1, §2

KB cells = assay: Alkaline comet assay for DNA strand breaks; format: cell-based; conditions: for strand breaks on chromosomal DNA (comet assay): 3 h, KB cells; for reversal of DNA cleavage events upon second incubation: second incubation at 55° C. for 10 min
[10] = system: nasopharyngeal carcinoma (SUNE1); assay: MTT cytotoxicity assay, SUNE1; format: cell-based, human; conditions: 72 h
Procedure: as §1, §2

NCI-H460 tumor = assay: In vivo anti-cancer study, NCI-H460 tumor in nude mice; set-up: species or system BALB/c AnN-nu mice (nude mice); conditions: twice-a-week intraperitoneal injection; for inhibition of NCI-H460 tumor growth: 28 days
Source text: For the complex 14, four-week-old male BALB/c AnN-nu mice (nude mice) were obtained from the laboratory of PearL Materia Medica Development (Shenzhen) Ltd. Tumor cells (1×10^6) resuspended in DMEM medium were implanted by subcutaneous injection on the right flank of the mice. When tumors were approximately 50 mm^3 in size, animals were randomly separated into four groups to receive treatment of twice-a-week intraperitoneal injection of 20% PET vehicle control (20% PET=12% polyethylene glycol 400; 6% ethanol; 2% Tween 20; 80% phosphate-buffered saline), complex 14 at 1 mg/kg, complex 14 at 3 mg/kg or cyclophosphamide at 30 mg/kg. Volumes of the tumor were measured every 3 to 4 days. Tumor volume was calculated by the formula: abc/2 in which a, represents tumor length; b, the width; and c, tumor thickness, as measured with a caliper and expressed in millimeter. After 28 days, the mice were sacrificed and the tumors were taken out and their weights were measured.

SMILES | IC50 (melanoma (B16)) | IC50 [1] | IC50 [2] | IC50 [3] | IC50 [4] | IC50 [5] | IC50 (leukemia (HL-60)) | IC50 [7] | IC50 [9] | reversal of DNA cleavage events upon second incubation (KB cells) | further results
Cn1cc[n+](C)[c]1[Au-]12[c]3ccccc3-c3cccc([n+]31)-c1cccc[c]12.O=S(=O)([O-])C(F)(F)F [Complex 1] | 330 nM | 620 nM | 25000 nM | 170 nM | 370 nM | 560 nM | 480 nM | 150 nM | 1200 nM | partially reversed | inhibition of TopoI-mediated DNA relaxation (topoisomerase I (TopoI); 10 μM): completely inhibited; inhibition of TopoI-mediated DNA relaxation (topoisomerase I (TopoI); dose response, compared with CPT): dose-dependently inhibits DNA relaxation at significant lower concentrations than CPT; nicked DNA (stimulation of DNA cleavage by TopoI) (topoisomerase I (TopoI); ethidium bromide containing gel): presence of nicked DNA was observed; band intensity of the TopoI band (TopoI; 10 and 100 nM): reduced the band intensity of the TopoI band; fold higher cytotoxic activity than cisplatin [6]: 18 to 28 fold; toxic side-effect including death and weight loss ([8]; nude mice): no apparent 1-induced toxic side-effect including death and weight loss was observed; suppression of tumor growth compared to vehicle control ([8]; nude mice bearing PLC tumor): 47%; viable cells unstained by both AV-FITC and PI (SUNE1 cells; 12 μM): ~90%; SUNE1 cells in early apoptotic state (SUNE1 cells; 60 μM): 30.9%; strand breaks on chromosomal DNA (comet assay) (KB cells; 0.5 μM): induced extensive strand breaks on chromosomal DNA
CCCCn1cc[n+](CCCC)[c]1[Pt-2]12[c]3ccccc3-c3cccc([n+]31)-c1cccc[n+]12.F[P-](F)(F)(F)(F)F (centres unmarked) [Complex 14] | 150 nM | 40 nM | 10000 nM | 90 nM | 770 nM | 40 nM | 80 nM | 50 nM | 80 nM |  | IC50 [10]: 140 nM; inhibition of NCI-H460 tumor growth (NCI-H460 tumor; 1 mg/kg): significantly less effective; inhibition of NCI-H460 tumor growth (NCI-H460 tumor; 3 mg/kg): 55%; body-weight loss (NCI-H460 tumor; 3 or 1 mg/kg): no significant weight loss; viable cells unstained by both AV-FITC and PI (SUNE1 cells; 1 μM): ~90%; SUNE1 cells in early apoptotic state (SUNE1 cells; 10 μM): 46.4%
CC[C@@]1(O)C(=O)OCc2c1cc1n(c2=O)Cc2cc3ccccc3nc2-1 [CPT, camptothecin] |  |  |  |  |  |  |  |  |  | partially reversed | band intensity of the TopoI band (TopoI; 1 μM): reduced the band intensity of the TopoI band; strand breaks on chromosomal DNA (comet assay) (KB cells; 1 μM): induced extensive strand breaks on chromosomal DNA
